The source of these data is publication PMC8635125, “A Novel Dibenzoxazepine Attenuates Intracellular Salmonella Typhimurium Oxidative Stress Resistance” (Microbiology Spectrum, 2021).

Converted amounts (≈) assume the structure as drawn. Where two headings read alike, the source gives them in different places.

The subject of data set [1] is S. Typhimurium NL08.10. Briefly: MIC assay (broth microdilution). The format is cell-based, Salmonella Typhimurium. The settings on record: Table S1(A); for MIC: Salmonella enterica, TYPHIMURIUM, NL08.10, read-out: MIC; for R/I/S: NL08.10, CLSI criteria. The method, then:
(§1) The minimal inhibitory concentration (MIC) of each test compound against the individual bacterial strains was determined by the broth microdilution method following the guidelines recommended by the Clinical and Laboratory Standards Institute (CLSI) ([27]).
A general note: Dilution methods test growth across graded concentrations, often in twofold steps.

In data set [2] the test system is S. Typhimurium ATCC 14028. Nature of the data set: MIC assay (broth microdilution). Type of data set: cell-based, Salmonella Typhimurium. The settings on record: for MIC: Salmonella enterica; for R/I/S: ATCC 14028, CLSI criteria. The method, then:
as §1

In data set [3] the test system is S. Typhimurium 0911R. Briefly: microbe, parasite or virus in culture. The settings on record: for MIC: Salmonella enterica, TYPHIMURIUM; for R/I/S: Table S1(A), 0911R, CLSI criteria. Type of data set: cell-based, Salmonella Typhimurium. The method, then:
as §1

The test system of data set [4] is intracellular S. Typhimurium in RAW264.7 macrophages. Nature of the data set: microbe, parasite or virus in culture. Type of data set: cell-based, Salmonella enterica serovar Typhimurium. The settings on record: for survival of intracellular Salmonella in macrophages, antibiotic alone: RAW264.7, 24 h. The method, then: (§2) Overnight cultures of RFP-expressing S. Typhimurium were prepared for infection by 1:100 dilution in fresh LB broth and incubation for 2 h at 37°C. The bacteria were then collected by centrifugation at 6,000 × g for 3 min and suspended in phosphate-buffered saline (PBS; pH 7.2) to an optical density of 0.6 at 600 nm, which was equivalent to 5 × 10^8 CFU/mL. RAW264.7 macrophages were seeded in 96-well black clear-bottom plates (Greiner) and incubated for 20 h followed by infection with RFP-expressing S. Typhimurium at a multiplicity of infection (MOI) of 50 for 1 h. […] Afterward, the cells were washed and stained with CellTracker Green (Thermo Fisher Scientific) for 30 min in serum-free DMEM followed by fixation in 3.7% formaldehyde (Sigma-Aldrich) for 20 min and stained with 0.2 mg/L DAPI (4′,6-diamidino-2-phenylindole; AAT Bioquest) for 30 min. Images of individual wells were captured and analyzed using a high-content imaging system (ImageXpress Micro 4; Molecular Devices). The CC50 and 50% effective concentration (EC50) values against intracellular bacteria of each compound were determined using CalcuSyn software (Biosoft).

Data set [5] deals with ROS levels in Salmonella-infected RAW264.7 cells. Briefly: Analysis of ROS in macrophages (H2DCFDA). Type of data set: cell-based, murine. The settings on record: 1 h; SW14 at concentrations up to 8 μM. The method, then: RAW264.7 macrophages were seeded in 96-well black plates and infected by S. Typhimurium ATCC 14028 at an MOI of 25 for 1 h. After infection, the cells were washed, exposed to 100 mg/L gentamicin for 1 h, washed with warm Krebs-Ringer phosphate buffer (KRP buffer; 120 mM NaCl, 5 mM KCl, 1.7 mM KH2PO4, 8.3 mM Na2HPO4, 10 mM glucose, 1 mM CaCl2, 1.5 mM MgCl2, pH 7.3) and stained with H2DCFDA at 37°C with 5% CO2 for 45 min. The cells were then washed with KRP buffer and treated with SW14 or PMA at the desired concentrations in KRP buffer with 10% FBS. Fluorescence signals at 488/525 nm (excitation/emission) were measured using a SpectraMax M5 Microplate Reader (Molecular Devices).

Data set [6] concerns S. Typhimurium SA10. Nature of the data set: MIC assay (broth microdilution). The format is cell-based, Salmonella Typhimurium. The settings on record: Table S1(B); for MIC: Salmonella enterica, TYPHIMURIUM, SA10; for R/I/S: SA10, CLSI criteria. The method, then:
as §1

Data set [7] concerns S. Typhimurium SB10. Nature of the data set: MIC assay (broth microdilution). Type of data set: cell-based, Salmonella Typhimurium. The settings on record: Table S1(B); for MIC: Salmonella enterica, TYPHIMURIUM, SB10, read-out: MIC; for R/I/S: SB10, CLSI criteria. The method, then:
as §1

A short description of data set [8]: HCA cytotoxicity toward infected macrophages (nuclear staining). The format is cell-based, murine. The settings on record: mouse, RAW264.7 macrophages infected with S. Typhimurium, infected RAW264.7 cells, read-out: 50% cytotoxic concentration (CC50) toward macrophages. The method, then: as §2
The mark [9] stands for this setting: Table S1(A), ATCC 14028, read-out: MIC.
Setting [10] is: Table S2, CAMH medium, read-out: MIC.
The mark [11] stands for this setting: Table S2, LB medium, read-out: MIC.
Setting [12] is: Table S2, LPM medium, read-out: MIC.

As to `CC1(C)S[C@@H]2[C@H](NC(=O)[C@H](N)c3ccccc3)C(=O)N2[C@H]1C(=O)O` [Ampicillin], the MIC in data set [1] was more than 64 µg/mL; in data set [2] (setting [9]) it was 16 µg/mL (≈ 45.8 µM); in data set [2] (setting [10]), 4 µg/mL (≈ 11.4 µM); in data set [2] (setting [11]), 4 µg/mL (≈ 11.4 µM); in data set [2] (setting [12]), 1 µg/mL (≈ 2.86 µM); in data set [3], more than 64 µg/mL. The R/I/S entry is “R” in data set [1], “I” in data set [2] (Table S1(A)) and “R” in data set [3].

`O=C(O)c1cn(C2CC2)c2cc(N3CCNCC3)c(F)cc2c1=O` [Ciprofloxacin, ciprofloxacin]: in data set [4] (HCA), the “survival of intracellular Salmonella in macrophages, antibiotic alone” value was “inhibited the survival of intracellular Salmonella in macrophages in a dose-dependent manner”.

With `Cn1cnc(N)c2ncnc1-2` [3-MA, 3-methyladenine], the “relative number of intracellular bacteria” value in data set [4] (3-MA 10 mM, infected RAW264.7) is reported as “increased significantly”.

For `CCCCCCCCCCCCCC(=O)O[C@@H]1[C@@H](C)[C@@]2(O)[C@@H](C=C(CO)C[C@]3(O)C(=O)C(C)=C[C@@H]23)[C@@H]2C(C)(C)[C@]12OC(C)=O` [PMA, phorbol 12-myristate 13-acetate], the “ROS level (H2DCFDA fluorescence signal) in infected macrophages” value in data set [5] is recorded as “significantly elevated”.

For `CC1COc2c(N3CCN(C)CC3)c(F)cc3c(=O)c(C(=O)O)cn1c23` (stereo not drawn) [Ofloxacin], the results for the MIC in data set [6], in data set [7] and in data set [2] were 8 µg/mL (≈ 22.1 µM), 8 µg/mL (≈ 22.1 µM) and less than 0.125 µg/mL, respectively. Further, the R/I/S entry in data set [6] was “R”; in data set [7], “R”; in data set [2] (Table S1(B)), “S”.

For the molecule `C=CC1=C(C(=O)O)N2C(=O)[C@@H](NC(=O)/C(=N\OCC(=O)O)c3csc(N)n3)[C@H]2SC1` [cefixime], in data set [4] (HCA), the “survival of intracellular Salmonella in macrophages, antibiotic alone” value is given as “inhibited the survival of intracellular Salmonella in macrophages in a dose-dependent manner”.

For `CO[C@H]1/C=C/O[C@@]2(C)Oc3c(C)c(O)c4c(O)c(c(/C=N/N5CCN(C)CC5)c(O)c4c3C2=O)NC(=O)/C(C)=C\C=C\[C@H](C)[C@H](O)[C@@H](C)[C@@H](O)[C@@H](C)[C@H](OC(C)=O)[C@@H]1C` [Rifampicin], the values for the MIC in data set [2] (setting [10]), in data set [2] (setting [11]) and in data set [2] (setting [12]) were 16 µg/mL (≈ 19.4 µM), 16 µg/mL (≈ 19.4 µM) and 4 µg/mL (≈ 4.86 µM), respectively.

Regarding `CN[C@H](CC(C)C)C(=O)N[C@H]1C(=O)N[C@@H](CC(N)=O)C(=O)N[C@H]2C(=O)N[C@H]3C(=O)N[C@H](C(=O)N[C@H](C(=O)O)c4cc(O)cc(O)c4-c4cc3ccc4O)[C@H](O)c3ccc(c(Cl)c3)Oc3cc2cc(c3O[C@@H]2O[C@H](CO)[C@@H](O)[C@H](O)[C@H]2O[C@H]2C[C@](C)(N)[C@H](O)[C@H](C)O2)Oc2ccc(cc2Cl)[C@H]1O` [Vancomycin], the MIC is 2050 µg/mL (≈ 1410 µM) in data set [2] (Table S2, CAMH medium); 512 µg/mL (≈ 353 µM) in data set [2] (Table S2, LB medium); 128 µg/mL (≈ 88.3 µM) in data set [2] (Table S2, LPM medium).

For the molecule `[H]/N=C(/N)N[C@H]1[C@H](O)[C@@H](O)[C@H](O[C@@H]2O[C@@H](C)[C@](O)(C=O)[C@H]2O[C@@H]2O[C@@H](CO)[C@H](O)[C@@H](O)[C@@H]2NC)[C@@H](N/C(N)=N\[H])[C@@H]1O` [Streptomycin], the MIC was more than 64 µg/mL in data set [1], 32 µg/mL (≈ 55 µM) in data set [2] (setting [9]) and more than 64 µg/mL in data set [3].

`CN(C)[C@@H]1C(O)=C(C(N)=O)C(=O)[C@@]2(O)C(O)=C3C(=O)c4c(O)cccc4[C@@](C)(O)[C@H]3C[C@@H]12` [Tetracycline]: the R/I/S result in data set [1] is “R”; in data set [2] (Table S1(A)), “I”; in data set [3], “R”. The MIC in data set [2] (setting [9]) worked out at 8 µg/mL (≈ 18 µM).

Regarding `O=C(N[C@H](CO)[C@H](O)c1ccc([N+](=O)[O-])cc1)C(Cl)Cl` [Chloramphenicol], the values for the MIC in data set [1] and in data set [2] (setting [9]) were 32 µg/mL (≈ 99 µM) and 16 µg/mL (≈ 49.5 µM), respectively. The R/I/S result in data set [1] is “R”; in data set [2] (Table S1(A)), “I”; in data set [3], “R”.

For the molecule `CN1CCN(C2=Nc3ccccc3Oc3ccc(Cl)cc32)CC1` [Loxapine, loxapine], the CC50 at 24 h in data set [8] was 88.2 µM. For the same molecule, the “selectivity index (SI; CC50/EC50)” value in data set [4] (CC50 RAW264.7 / EC50 intracellular Salmonella) worked out at 16.3. Also, the EC50 in data set [4] (Salmonella enterica, RFP-expressing S. Typhimurium in RAW264.7, 24 h, with gentamicin 20 mg/L, HCA, read-out: 50% effective concentration (EC50) against intracellular Salmonella) is 5.4 µM.

Take `CNC(C)C1CCC(N)C(OC2C(N)CC(N)C(OC3OCC(C)(O)C(NC)C3O)C2O)O1` (stereo not drawn) [Gentamicin, gentamicin]: the MIC in data set [6] stood at 0.5 µg/mL (≈ 1.05 µM); in data set [7] it was 1 µg/mL (≈ 2.09 µM); in data set [1] it was 2 µg/mL (≈ 4.19 µM); in data set [2] (setting [9]) it was 2 µg/mL (≈ 4.19 µM); in data set [2] (Table S1(B), ATCC 14028, read-out: MIC), 2 µg/mL (≈ 4.19 µM). Besides, the R/I/S result in data set [6], in data set [7], in data set [1], in data set [2] (Table S1(A)), in data set [2] (Table S1(B)) and in data set [3] was “S” in each case.
